The record followed here is patent publication US8030354B2, “Substituted biphenyl GPR40 modulators” (Amgen Inc., priority 2007, dated 2011).

pEC50: −log10 of the molar value.

The target in assay [1] is T1, GPR40 (Homo sapiens, UniProt O14842). Description: Cell-based aequorin assay (CHO cells stably expressing GPR40 and aequorin). The conditions noted are these: activation of human GPR40, CHO cells, 0.01% HSA. Set-up: expressed in transfected cells; host or cells: CHO cells stably transfected with GPR40 and aequorin. The essentials: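 CHO cells stably co-expressing GPR40 and aequorin, loaded with coelenterazine (1 ug/mL, 2 h, room temperature) in H/HBSS with 20 mM Hepes and 0.01% fatty acid-free HSA. Serially diluted compounds added; luminescence recorded over 20 s. EC50 from dose-response of maximum relative light units.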
T1 sequence (O14842 whole entry): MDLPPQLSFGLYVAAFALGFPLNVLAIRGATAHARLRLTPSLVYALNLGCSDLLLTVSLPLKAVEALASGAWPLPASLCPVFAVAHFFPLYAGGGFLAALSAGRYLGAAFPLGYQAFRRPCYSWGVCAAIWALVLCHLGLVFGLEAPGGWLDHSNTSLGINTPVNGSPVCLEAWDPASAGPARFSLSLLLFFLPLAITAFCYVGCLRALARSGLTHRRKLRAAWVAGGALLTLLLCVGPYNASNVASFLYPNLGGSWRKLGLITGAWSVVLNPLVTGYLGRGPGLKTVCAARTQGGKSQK

Assay [2] deals with T1, GPR40. The experiment in a line: Inositol phosphate accumulation assay (A9_GPR40 cells). Set-up: expressed in transfected cells; host or cells: CHO cells stably transfected with GPR40 and aequorin. As to conditions: inositol phosphate assay, A9_GPR40 cells, 1 hour; read-out: IP3 EC50. The class given is cell-based. The essentials:
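A9 cells stably expressing GPR40 were labelled 16 h with 1 μCi/mL ^3H-inositol in inositol-free DMEM with dialysed FBS. Compounds in HBSS/10 mM LiCl with HSA were applied for 1 h at 37° C, then quenched with 20 mM formic acid. Accumulated [^3H] inositol phosphates were counted by SPA.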

As a reminder, the pEC50 is −log10 of the EC50, conventionally taken in molar units. As to `COc1ccc(F)c(-c2ccc(COc3cccc(C(CC(=O)O)C4CC4)c3F)cc2C(C)C(C)(C)C)c1` (single isomer, unassigned) [Example 83.6], the pEC50 in assay [1] is 6.00 to 7.00; in assay [2], over 8.00.

As for `COc1cccc(-c2ccc(COc3cccc(C(CC(=O)O)CC4CC4)c3)cc2C(C)(C)C)c1` (single isomer, unassigned) [Example 69.3, (3R)-4-Cyclopropyl-3-(3-(((2-(1,1-dimethylethyl)-3′-(methyloxy)-1,1′-biphenyl-4-yl)methyl)oxy)phenyl)butanoic acid or (3S)-4-cyclopropyl-3-(3-(((2-(1,1-dimethylethyl)-3′-(methyloxy)-1,1′-biphenyl-4-yl)methyl)oxy)phenyl)butanoic acid], the values for the pEC50 in assay [1] and in assay [2] were 6.00 to 7.00 and 7.00 to 8.00, respectively.

Turning to `COc1cc(-c2cc(F)c(COc3cccc(C(C)(C)CC(=O)O)c3)cc2C2CCCC2(C)C)c(F)cn1` (single isomer, unassigned) [Example 85.5, 3-(3-(((5-((1S)-2,2-Dimethylcyclopentyl)-2-fluoro-4-(5-fluoro-2-(methyloxy)-4-pyridinyl)phenyl)methyl)oxy)phenyl)-3-methylbutanoic acid or 3-(3-(((5-((1R)-2,2-dimethylcyclopentyl)-2-fluoro-4-(5-fluoro-2-(methyloxy)-4-pyridinyl)phenyl)methyl)oxy)phenyl)-3-methylbutanoic acid], the pEC50 was 6.00 to 7.00 in assay [1] and 7.00 to 8.00 in assay [2].

In the case of `COc1ccc(F)c(-c2cc(F)c(COc3cccc(C(CC(=O)O)CC4CC4)c3)cc2C2CCCC2(C)C)c1` (single isomer, unassigned) [Example 69.34], the pEC50 is 6.00 to 7.00 in assay [1] and over 8.00 in assay [2].

Turning to `COc1cccc(-c2ccc(COc3cccc(C(C)CC(=O)O)c3)cc2C2=CCCC2(C)C)c1` (single isomer, unassigned) [Example 64.20, (3R)-3-(3-(((2-(5,5-Dimethyl-1-cyclopenten-1-yl)-3′-(methyloxy)-1,1′-biphenyl-4-yl)methyl)oxy)phenyl)butanoic acid or (3S)-3-(3-(((2-(5,5-dimethyl-1-cyclopenten-1-yl)-3′-(methyloxy)-1,1′-biphenyl-4-yl)methyl)oxy)phenyl)butanoic acid], the values for the pEC50 in assay [1] and in assay [2] were 6.00 to 7.00 and 7.00 to 8.00, respectively.

As to `COc1ccc(F)c(-c2ccc(COc3cccc([C@@H](CC(=O)O)C4CC4)c3)cc2[C@H](OC)C(C)(C)C)c1` (single isomer, unassigned) [Example 66.24], the pEC50 was 5.00 to 6.00 in assay [1] and 6.00 to 7.00 in assay [2].

For `COc1ccc(F)c(-c2ccc(COc3cccc([C@@H](CC(=O)O)C4CC4)c3)cc2[C@@H](OC)C(C)(C)C)c1` (single isomer, unassigned) [Example 66.13], the pEC50 was 6.00 to 7.00 in assay [1] and over 8.00 in assay [2].

Take `COc1ccc(F)c(-c2ccc(COc3cccc([C@@H](CC(=O)O)C4CC4)c3)cc2C(C)(C)C)c1` (single isomer, unassigned) [Example 8, (3S)-3-Cyclopropyl-3-(3-(((2-(1,1-dimethylethyl)-2′-fluoro-5′-(methyloxy)-1,1′-biphenyl-4-yl)methyl)oxy)phenyl)propanoic acid or (3R)-3-cyclopropyl-3-(3-(((2-(1,1-dimethylethyl)-2′-fluoro-5′-(methyloxy)-1,1′-biphenyl-4-yl)methyl)oxy)phenyl)propanoic acid]: the pEC50 in assay [1] and in assay [2] was 6.00 to 7.00 in each case.

`COc1ccc(F)c(-c2ccc(COc3cccc([C@@H](CC(=O)O)CC4CC4)c3)cc2CC(C)(C)C)c1` (single isomer, unassigned) [Example 69.16, (3R)-4-Cyclopropyl-3-(3-(((2-(2,2-dimethylpropyl)-2′-fluoro-5′-(methyloxy)-1,1′-biphenyl-4-yl)methyl)oxy)phenyl)butanoic acid or (3S)-4-cyclopropyl-3-(3-(((2-(2,2-dimethylpropyl)-2′-fluoro-5′-(methyloxy)-1,1′-biphenyl-4-yl)methyl)oxy)phenyl)butanoic acid]: the pEC50 in assay [1] and in assay [2] was 7.00 to 8.00 each time.

In the case of `COc1ccc(F)c(-c2ccc(COc3cccc(C(CC(=O)O)C4CC4)c3F)cc2C(OC)C(C)(C)C)c1` (single isomer, unassigned) [Example 83.8], the pEC50 was 6.00 to 7.00 in assay [1] and over 8.00 in assay [2].

Take `CCC[C@H](CC(=O)O)c1cccc(OCc2ccc(-c3cc(OC)ccc3F)c(C3=CCCC3(C)C)c2)c1` (single isomer, unassigned) [Example 59, (3R)-3-(3-(((2-(5,5-Dimethyl-1-cyclopenten-1-yl)-2′-fluoro-5′-(methyloxy)-1,1′-biphenyl-4-yl)methyl)oxy)phenyl)hexanoic acid or (3S)-3-(3-(((2-(5,5-dimethyl-1-cyclopenten-1-yl)-2′-fluoro-5′-(methyloxy)-1,1′-biphenyl-4-yl)methyl)oxy)phenyl)hexanoic acid]: the pEC50 is 6.00 to 7.00 in assay [1] and 7.00 to 8.00 in assay [2].

For `COc1ccc(F)c(-c2ccc(COc3cccc([C@@H](CC(=O)O)[C@@H]4C[C@H]4C)c3)cc2C2=CCCC2(C)C)c1` (single isomer, unassigned) [Example 93.2], the pEC50 is 6.00 to 7.00 in assay [1] and 7.00 to 8.00 in assay [2].

In the case of `COc1ccc(F)c(-c2c(F)cc(COc3cccc([C@@H](CC(=O)O)C4CC4)c3F)cc2[C@@H]2CCCC2(C)C)c1` (single isomer, unassigned) [Example 83.24], the pEC50 was 6.00 to 7.00 in assay [1] and 7.00 to 8.00 in assay [2].

Consider `CCOc1ccc(F)c(-c2ccc(COc3cccc(C(CC(=O)O)C4CC4)c3)cc2C2CCCC2(C)C)c1` (single isomer, unassigned) [Example 66.26], for which the values for the pEC50 in assay [1] and in assay [2] were 6.00 to 7.00 and 7.00 to 8.00, respectively.

In the case of `COc1ccc(F)c(-c2ccc(COc3cccc(C(C)CC(=O)O)c3)cc2C2=CCC(C)(C)CC2)c1` (single isomer, unassigned) [Example 64.5, (3R)-3-(3-(((2-(4,4-Dimethyl-1-cyclohexen-1-yl)-2′-fluoro-5′-(methyloxy)-1,1′-biphenyl-4-yl)methyl)oxy)phenyl)butanoic acid or (3S)-3-(3-(((2-(4,4-dimethyl-1-cyclohexen-1-yl)-2′-fluoro-5′-(methyloxy)-1,1′-biphenyl-4-yl)methyl)oxy)phenyl)butanoic acid], the pEC50 in assay [1] was 6.00 to 7.00; in assay [2], 7.00 to 8.00.

For `C[C@H](CC(=O)O)c1cccc(OCc2ccc(-c3cc(O)ccc3F)c(C(C)(C)C)c2)c1` (single isomer, unassigned) [Example 35, (3R)-3-(3-(((2-(1,1-Dimethylethyl)-2′-fluoro-5′-hydroxy-1,1′-biphenyl-4-yl)methyl)oxy)phenyl)butanoic acid or (3S)-3-(3-(((2-(1,1-dimethylethyl)-2′-fluoro-5′-hydroxy-1,1′-biphenyl-4-yl)methyl)oxy)phenyl)butanoic acid], the pEC50 in assay [1] and in assay [2] was 6.00 to 7.00 in each case.

For `COc1ccc(F)c(-c2ccc(COc3cccc(C(CC(=O)O)C4CC4)c3)cc2C2CCCCCC2)c1` (single isomer, unassigned) [Example 66.2, (3S)-3-(3-(((2-Cycloheptyl-2′-fluoro-5′-(methyloxy)-1,1′-biphenyl-4-yl)methyl)oxy)phenyl)-3-cyclopropylpropanoic acid or (3R)-3-(3-(((2-cycloheptyl-2′-fluoro-5′-(methyloxy)-1,1′-biphenyl-4-yl)methyl)oxy)phenyl)-3-cyclopropylpropanoic acid], the pEC50 is 6.00 to 7.00 in assay [1] and 7.00 to 8.00 in assay [2].

Turning to `COc1ccc(F)c(-c2ccc(COc3cccc(CCC(=O)O)c3)cc2C(C)(C)C)c1` [Example 34, 3-(3-(((2-(1,1-Dimethylethyl)-2′-fluoro-5′-(methyloxy)-1,1′-biphenyl-4-yl)methyl)oxy)phenyl)propanoic acid], the pEC50 in assay [1] and in assay [2] was 6.00 to 7.00 throughout.

Consider `CCC(CC(=O)O)c1cc(OCc2ccc(-c3cc(OC)ccc3F)c(C3CCCC3(C)C)c2)ccc1F` (single isomer, unassigned) [Example 76.3], for which the pEC50 in assay [1] was 6.00 to 7.00; in assay [2], 7.00 to 8.00.

As for `COc1ccc(F)c(-c2ccc(COc3cccc(C(C)CC(=O)O)c3)cc2C2CCCC2(C)C)c1` (single isomer, unassigned) [Example 64.22, (3R)-3-(3-(((2-(2,2-Dimethylcyclopentyl)-2′-fluoro-5′-(methyloxy)-1,1′-biphenyl-4-yl)methyl)oxy)phenyl)butanoic acid or (3S)-3-(3-(((2-(2,2-dimethylcyclopentyl)-2′-fluoro-5′-(methyloxy)-1,1′-biphenyl-4-yl)methyl)oxy)phenyl)butanoic acid], the values for the pEC50 in assay [1] and in assay [2] were 6.00 to 7.00 and 7.00 to 8.00, respectively.

Regarding `COc1ccc(F)c(-c2ccc(COc3cc(CCC(=O)O)ccn3)cc2C(C)(C)C)c1` [Example 72, 3-(2-(((2-(1,1-Dimethylethyl)-2′-fluoro-5′-(methyloxy)-1,1′-biphenyl-4-yl)methyl)oxy)-4-pyridinyl)propanoic acid], the pEC50 was 6.00 to 7.00 in assay [1] and 5.00 to 6.00 in assay [2].
